Structures can show the parent of a compound that is named as a salt.
Experiments:
[1] = target: hMC1R (Homo sapiens (Human), UniProt Q01726); experiment: Transactivation test: melanocortin receptors (pCRE-Luc luciferase reporter), hMC1R; format: cell-based; details: HEK293 transfected with pCRE-Luc and hMC1R; products tested alone (agonist), 6 h incubation; % activity vs NDP-MSH 10 nM; IA: inactive
Experimental: (§1) Transactivation Test: Melanocortin Receptors
(§2) HEK293 lines are transfected with the pCRE-Luc and hMC1R, hMC3R, hMC4R or hMC5R vectors. The cells are cultured at 37° C., 5% CO2, in DMEM medium supplemented with 10% of foetal calf serum.
(§3) In the presence of an activator (agonist), the melanocortin receptor will activate the cAMP pathway which, via the CRE-Luc vector, will result in the synthesis of luciferase. After the addition of a lysis buffer containing a luminescent substrate for luciferase, it will be possible to measure the luminescence proportional to the degree of activation or of inhibition of the receptor.
(§4) The products are solubilized at 10 mM in DMSO. They are tested in the form of dose-response at a final DMSO concentration of 0.1%. The range comprising 10 points and one zero begins at 10 μM with 4-fold dilutions. For testing agonists, the products are tested alone. For determining the behaviour of antagonists, the products of interest are tested in the presence of 1 nM NDP-MSH (reference agonist). The cells are seeded at a rate of 5000 cells per well (384 well plate) in serum-free DMEM medium, and incubated overnight at 37° C., 5% CO2.
(§5) The products and the reference ligand (NDP-MSH) are added the following day, and the plates are again incubated for 6 h at 37° C., 5% CO2. After the addition of lysis buffer containing luciferin, the plates are read on a Top-Count instrument. The results are standardized as % activity using the 100% (cells+NDP-MSH at 10 nM) and 0% (cells alone) controls. An EC50 is calculated for each product using the XLFit software. The results are given in nM.

[2] = target: hMC4R (Homo sapiens (Human), UniProt P32245); experiment: Transactivation test: melanocortin receptors (pCRE-Luc luciferase reporter), hMC4R; format: cell-based; details: HEK293 transfected with pCRE-Luc and hMC4R; products tested alone (agonist), 6 h incubation; % activity vs NDP-MSH 10 nM; IA: inactive
Experimental: as §1, §2, §3, §4, §5

hMC1R, sequence (Q01726 whole entry): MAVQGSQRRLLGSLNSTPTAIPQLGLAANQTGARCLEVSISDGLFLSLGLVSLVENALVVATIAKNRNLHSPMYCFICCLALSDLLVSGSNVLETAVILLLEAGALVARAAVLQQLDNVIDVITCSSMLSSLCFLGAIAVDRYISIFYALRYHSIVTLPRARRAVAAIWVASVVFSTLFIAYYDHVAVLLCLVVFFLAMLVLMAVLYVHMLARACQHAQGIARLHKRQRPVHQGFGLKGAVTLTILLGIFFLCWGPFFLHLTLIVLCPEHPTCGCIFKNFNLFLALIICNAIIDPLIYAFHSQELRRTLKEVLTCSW
hMC4R, sequence (P32245 whole entry): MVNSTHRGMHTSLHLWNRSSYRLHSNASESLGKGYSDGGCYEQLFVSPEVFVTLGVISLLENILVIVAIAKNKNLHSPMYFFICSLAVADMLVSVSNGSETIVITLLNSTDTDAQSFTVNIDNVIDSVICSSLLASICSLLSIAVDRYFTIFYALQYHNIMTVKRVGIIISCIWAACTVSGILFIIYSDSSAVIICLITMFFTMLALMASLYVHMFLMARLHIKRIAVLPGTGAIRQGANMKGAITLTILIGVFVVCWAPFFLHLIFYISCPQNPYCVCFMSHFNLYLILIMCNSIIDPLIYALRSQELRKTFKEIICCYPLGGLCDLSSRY

Row | SMILES | EC50 [1] [µM] | EC50 [2] [µM]
1 | CCCCCC1(c2ccccc2)CN(C(=O)[C@@H](Cc2ccc(Cl)c(Cl)c2)NC(=O)CCc2c[nH]cn2)C1 [Compound 52, N-[(R)-1-(3,4-dichlorobenzyl)-2-oxo-2-(3-pentyl-3-phenylazetidin-1-yl)ethyl]-3-(1H-imidazol-4-yl)propionamide] | 2 | 0.25
2 | CCCCCOC1(c2ccccc2C)CN(C(=O)[C@@H](Cc2ccc(OC)cc2)NC(=O)CCc2c[nH]cn2)C1 [Compound 24, N-[(R)-1-(4-methoxybenzyl)-2-oxo-2-(3-pentyloxy-3-o-tolylazetidin-1-yl)ethyl]-3-(1H-imidazol-4-yl)propionamide] | 0.25 | 4
3 | CCCCOC1(c2ccccc2C)CN(C(=O)[C@H](Cc2ccc(OC)cc2)NC(=O)[C@H](Cc2c[nH]cn2)NC(=O)c2ccccc2)C1 [Compound 2, N-[(S)-1-[(S)-2-(3-butoxy-3-o-tolylazetidin-1-yl)-1-(4-methoxybenzyl)-2-oxoethylcarbamoyl]-2-(1H-imidazol-4-yl)ethyl]benzamide] | 0.03 | 8
4 | CCCCOC1(c2ccccc2)CN(C(=O)[C@@H](Cc2ccc(F)cc2)NC(=O)CCc2c[nH]cn2)C1 [Compound 33, N-[(R)-2-(3-butoxy-3-phenylazetidin-1-yl)-1-(4-fluorobenzyl)-2-oxoethyl]-3-(1H-imidazol-4-yl)propionamide] | 0.5 | 2
5 | CCCCOC1(c2ccccc2C)CN(C(=O)[C@@H](Cc2ccc(OC)cc2)NC(=O)CCc2c[nH]cn2)C1 [Compound 15, N-[(R)-2-(3-butoxy-3-o-tolylazetidin-1-yl)-1-(4-methoxybenzyl)-2-oxoethyl]-3-(1H-imidazol-4-yl)propionamide] | 0.12 | 4
6 | CCCCOC1(c2ccccc2C)CN(C(=O)[C@@H](Cc2ccc(OC)cc2)NC(=O)CCc2[nH]cnc2C)C1 [Compound 41, N-[(R)-2-(3-butoxy-3-o-tolylazetidin-1-yl)-1-(4-methoxybenzyl)-2-oxoethyl]-3-(5-methyl-3H-imidazol-4-yl)propionamide] | 0.12 | 1
7 | CCCCOC1(c2ccccc2)CN(C(=O)[C@@H](Cc2ccc(OC)cc2)NC(=O)CCc2c[nH]cn2)C1 [Compound 36, N-[(R)-2-(3-butoxy-3-phenylazetidin-1-yl)-1-(4-methoxybenzyl)-2-oxoethyl]-3-(1H-imidazol-4-yl)propionamide] | 1 | 3
8 | CCCCCC1(c2ccccc2)CN(C(=O)[C@@H](Cc2ccc(OC)cc2)NC(=O)CCc2c[nH]cn2)C1 [Compound 26, N-[(R)-1-(4-methoxybenzyl)-2-oxo-2-(3-pentyl-3-phenylazetidin-1-yl)ethyl]-3-(1H-imidazol-4-yl)propionamide] | 0.5 | 4
9 | CCCCOC1(c2ccccc2C)CN(C(=O)[C@H](Cc2ccc(OC)cc2)NC(=O)CCc2c[nH]cn2)C1 [Compound 16, N-[(S)-2-(3-butoxy-3-o-tolylazetidin-1-yl)-1-(4-methoxybenzyl)-2-oxoethyl]-3-(1H-imidazol-4-yl)propionamide] | 2 | 15
10 | CCCCOC1(c2ccccc2C)CN(C(=O)C(Cc2ccc(OC)cc2)NC(=O)CC(CCC)c2c[nH]cn2)C1 (centres unmarked) [Compound 62, N-[2-(3-butoxy-3-o-tolylazetidin-1-yl)-1-(4-methoxybenzyl)-2-oxoethyl]-3-(1H-imidazol-4-yl)hexyramide] | – | 0.5
11 | CCCCOC1(c2ccccc2)CN(C(=O)[C@@H](Cc2ccc(Cl)cc2Cl)NC(=O)CCc2c[nH]cn2)C1 [Compound 19, N-[(R)-2-(3-butoxy-3-phenylazetidin-1-yl)-1-(2,4-dichlorobenzyl)-2-oxoethyl]-3-(1H-imidazol-4-yl)propionamide] | 2 | 0.12
12 | CCOC1(c2ccccc2C)CN(C(=O)[C@@H](Cc2ccc(OC)cc2)NC(=O)CCc2c[nH]cn2)C1 [Compound 17, N-[(R)-2-(3-ethoxy-3-o-tolylazetidin-1-yl)-1-(4-methoxybenzyl)-2-oxoethyl]-3-(1H-imidazol-4-yl)propionamide] | 0.25 | 8
13 | CCCCCC1(c2c(F)cccc2F)CN(C(=O)[C@@H](Cc2ccc(OC)cc2)NC(=O)CCc2c[nH]cn2)C1 [Compound 61, N-[(R)-2-[3-(2,6-difluorophenyl)-3-pentylazetidin-1-yl]-1-(4-methoxybenzyl)-2-oxoethyl]-3-(1H-imidazol-4-yl)propionamide] | 0.12 | 0.1
14 | CCCCCC1(c2ccc(F)cc2)CN(C(=O)[C@@H](Cc2ccc(OC)cc2)NC(=O)CCc2c[nH]cn2)C1 [Compound 38, N-[(R)-2-[3-(4-fluorophenyl)-3-pentylazetidin-1-yl]-1-(4-methoxybenzyl)-2-oxoethyl]-3-(1H-imidazol-4-yl)propionamide] | 0.25 | –
15 | CCCCOC1(c2ccccc2C)CN(C(=O)C(Cc2ccc(Cl)cc2Cl)NC(=O)CC(CCC)c2c[nH]cn2)C1 (centres unmarked) [Compound 65, N-[2-(3-butoxy-3-o-tolylazetidin-1-yl)-1-(2,4-dichlorobenzyl)-2-oxoethyl]-3-(1H-imidazol-4-yl)hexyramide] | – | 0.1
16 | CCCCCC1(c2ccccc2Cl)CN(C(=O)[C@@H](Cc2ccc(OC)cc2)NC(=O)CCc2c[nH]cn2)C1 [Compound 44, N-[(R)-2-[3-(2-chlorophenyl)-3-pentylazetidin-1-yl]-1-(4-methoxybenzyl)-2-oxoethyl]-3-(1H-imidazol-4-yl)propionamide] | 0.03 | –
17 | CCCCCC1(c2ccccc2)CN(C(=O)[C@@H](Cc2ccc(C(F)(F)F)cc2)NC(=O)CCc2c[nH]cn2)C1 [Compound 51, N-[(R)-2-oxo-2-(3-pentyl-3-phenylazetidin-1-yl)-1-(4-trifluoromethylbenzyl)ethyl]-3-(1H-imidazol-4-yl)propionamide] | 1 | –
18 | CCCOC1(c2ccccc2C)CN(C(=O)[C@H](Cc2ccc(OC)cc2)NC(=O)CCc2c[nH]cn2)C1 [Compound 21, N-[(S)-1-(4-methoxybenzyl)-2-oxo-2-(3-propoxy-3-o-tolylazetidin-1-yl)ethyl]-3-(1H-imidazol-4-yl)propionamide] | 4 | –
19 | CCCCCC1(c2ccccc2F)CN(C(=O)[C@@H](Cc2ccc(OC)cc2)NC(=O)CCc2c[nH]cn2)C1 [Compound 43, N-[(R)-2-[3-(2-fluorophenyl)-3-pentylazetidin-1-yl]-1-(4-methoxybenzyl)-2-oxoethyl]-3-(1H-imidazol-4-yl)propionamide] | 0.03 | –
20 | CCCCOC1(c2ccccc2C)CN(C(=O)C(Cc2ccc(OC)cc2O)NC(=O)CCc2cnc[nH]2)C1 (centres unmarked) [Compound 70, N-[2-(3-Butoxy-3-o-tolylazetidin-1-yl)-1-(2-hydroxy-4-methoxybenzyl)-2-oxoethyl]-3-(3H-imidazol-4-yl)propionamide trifluoroacetate] | 4 | –
21 | COc1ccc(C[C@@H](NC(=O)CCc2c[nH]cn2)C(=O)N2CC(O)(c3ccccc3C)C2)cc1 [Compound 29, N-[(R)-2-(3-hydroxy-3-o-tolylazetidin-1-yl)-1-(4-methoxybenzyl)-2-oxoethyl]-3-(1H-imidazol-4-yl)propionamide] | 1 | –
22 | O=C(CCc1c[nH]cn1)N[C@H](Cc1ccc(Cl)c(Cl)c1)C(=O)N1CC(O)(c2ccccc2)C1 [Compound 12, N-[(R)-1-(3,4-dichlorobenzyl)-2-(3-hydroxy-3-phenylazetidin-1-yl)-2-oxoethyl]-3-(1H-imidazol-4-yl)propionamide] | 8 | –
23 | CCCCCC1(c2ccc(Cl)c(Cl)c2)CN(C(=O)[C@@H](Cc2ccc(OC)cc2)NC(=O)CCc2c[nH]cn2)C1 [Compound 54, N-[(R)-2-[3-(3,4-dichlorophenyl)-3-pentylazetidin-1-yl]-1-(4-methoxybenzyl)-2-oxoethyl]-3-(1H-imidazol-4-yl)propionamide] | 0.25 | –
24 | CCCCOC1(c2ccccc2C)CN(C(=O)[C@@H](Cc2ccc(O)cc2)NC(=O)CCc2cnc[nH]2)C1 [Compound 72, N-[(R)-2-(3-Butoxy-3-o-tolylazetidin-1-yl)-1-(4-hydroxybenzyl)-2-oxoethyl]-3-(3H-imidazol-4-yl)propionamide] | 2 | –
25 | COc1ccc(C[C@H](NC(=O)CCc2c[nH]cn2)C(=O)N2CC(O)(C3CCCCC3)C2)cc1 [Compound 10, N-[(S)-2-(3-cyclohexyl-3-hydroxyazetidin-1-yl)-1-(4-methoxybenzyl)-2-oxoethyl]-3-(1H-imidazol-4-yl)propionamide] | 8 | –
26 | CCCC(=O)OC1(c2ccccc2)CN(C(=O)[C@H](Cc2ccc(OC)cc2)NC(=O)[C@H](Cc2c[nH]cn2)NC(=O)c2ccccc2)C1 [Compound 1, 1-[(S)-2-[(S)-2-benzoylamino-3-(1H-imidazol-4-yl)propionylamino]-3-(4-methoxyphenyl)propionyl]-3-phenylazetidin-3-yl ester of butyric acid] | 0.5 | –
